Reference: patent US8778871B2 (Takeda Pharmaceutical Company Limited, priority 2004, dated 2014)
Non-standard residues stand in square brackets, D forms with d. Residues, ends and D or L forms follow the SMILES beside them. *: point of attachment. Propanoyl(3-(3-pyridyl)) = O=C(CCc1cccnc1)*; Arg(Me) = CNC(=N)NCCC[C@H](N)C(=O)O; d4Pal = N[C@H](Cc1ccncc1)C(=O)O; azaGly = NNC(=O)O

Key:
[1] = test system: human colonic carcinoma-derived cell line SW620; assay: Tumor growth inhibition activity in tumor-bearing mice; assay type: in vivo, mouse; conditions: for tumor growth inhibition (tumor size) compared to the vehicle group: s.c. osmotic pump; for effect of tumor growth inhibition relative to Metastin: in vivo
Experimental: The abscissa denotes the number of days after injection. The bar on the abscissa designates a dosing period. The ordinate denotes a tumor size (mm^3).
On the following day, human colonic carcinoma-derived cell line SW620 (ATCC) was dissolved in 20 mM phosphate buffered saline (pH 7.2)(PBS) containing 200 μL of 0.15M NaCl at a density of 2×10^6 cells. The resulting solution was subcutaneously injected into the left flank of the mice above. The day when the cells were injected was made Day 0. Tumor was measured with an electronic caliper every other or 2 other days during Days 4 to 13 from the cell administration, and tumor size was calculated by the equation: (shorter diameter)^2×longer diameter/2.

[2] = Induction of ovulation in immature rat using metastin derivatives; assay type: in vivo; conditions: for progesterone level compared with hCG administration / dose to be administered for induction of ovulation equivalent to hCG / number of oocytes in average per rat: eCG-primed immature female Wistar rats; for dose to be administered for induction of ovulation equivalent to hCG: s.c.; for blood progesterone level: relative to Group A (hCG)
Experimental: Equine chorionic gonadotropin (eCG, serotropin, Dainippon Pharmaceutical Co., Ltd.) was dissolved in saline (Otsuka Pharmaceutical Co., Ltd.) in a concentration of 100 IU/mL. Using a 1 ml tuberculin syringe and a 26-gauge needle (both by Terumo Co., Ltd.), eCG was subcutaneously injected into the dorsal area of female Wistar rats of 23 days old after birth (Charles River Japan, Inc.) in a dose of 10 IU/animal, during 9:00 to 10:00 AM. Following the eCG injection, the animal was grouped after 47 to 48 hours as shown below, to which groups, each drug was injected.
Group B (5 rats): Compound No. 305 was dissolved in saline at 33.3 nmol/mL and the solution was subcutaneously injected into the back in a dose of 6.7 nmol/animal.
Group C (5 rats): Compound No. 305 was dissolved in saline at […] and the solution was subcutaneously injected into the back in a dose of 2.0 nmol/animal.
Group D (5 rats): Compound No. 322 was dissolved in saline at 33.3 nmol/mL and the solution was subcutaneously injected into the back in a dose of 6.7 nmol/animal.
Group E (5 rats): Compound No. 322 was dissolved in saline at 10.0 nmol/mL and the solution was subcutaneously injected into the back in a dose of 2.0 nmol/animal.
Group F (6 rats): Saline was subcutaneously injected into the back in a dose of 200 μL/animal.
After administration of these drugs, the animal was sacrificed by decapitation after 24 to 25 hours to recover blood, bilateral oviducts and uterus. In collecting blood, 90 μl of 10 KIU/mL aprotinin solution (Trasylol, Bayer) containing 3 mg/ml EDTA had been previously filled in a tube for recovery to prevent blood clotting. After blood recovery, the blood was thoroughly blended and the mixture was centrifuged at 2,000 G for 25 minutes. After the supernatant was recovered, the product was used as a plasma sample.
The number of oocytes was counted by referring to the method described in Eur. J. Endocrinol., 138, 594-600 (1998).
Where retention of oocytes in the oviducal ampulla was confirmed by stereomicroscopic observation of the oviduct, the ampulla was punctured with a 27-gauge needle for syringe (Terumo) to retrieve the oocytes. After granulosa cells surrounding the oocytes were removed by trypsin treatment, the number of oocytes was counted. Where retention of oocytes in the oviducal ampulla was not confirmed by stereomicroscopic observation of the oviduct, a with 27-gauge needle with the polished tip for syringe was inserted into the tubal ostium and more than 400 μL of saline was flushed into the oviduct and uterine for rinsing. Then, the presence or absence of oocytes in the effluent was observed.
The blood estradiol level was measured by radioimmunoassay (DPC.Estradiol Kit, Iatron, Inc.).
The blood progesterone level was measured by radioimmunoassay (DPC.Progesterone, Iatron, Inc.).

[3] = Effect of elevating sugar level by metastin derivatives (blood glucose and glucagon); assay type: in vivo, rat; conditions: Wistar male rats; for blood glucose level: i.v. 80 nmol/kg (FIG. 10); for blood glucagon level: i.v. 80 nmol/kg (FIG. 11)
From the text: The value indicates (mean±SE) (n=5). Symbol * designates that the P-value is 0.05 or less, when compared to the saline group and symbol ** designates that the P-value is 0.01 or less, when compared to the saline group.
In the figure, symbols open circle, closed circle and closed triangle designate blood glucagon level in the saline group and the 80 nmol/kg KiSS1-305 (Compound No. 305) group, the 80 nmol/kg KiSS1-322 (Compound No. 322) group, respectively. The value indicates (mean±SE) (n=5). Symbol * designates that the P-value is 0.05 or less, when compared to the saline group.
An operation was performed in free moving mature Wistar male rats (weighing […] at the time of operation) in a manner similar to TEST EXAMPLE 1 to collect blood. After the operation, the animal was maintained overnight. […] To prevent blood clotting, 3 μl of 300 KIU/ml aprotinin solution containing 3 mg/ml EDTA had previously been filled in the syringe. […] Blood was collected from the jugular vein by 300 μl each 2, 5, 15, 30, 45 and 60 minutes starting from the intravenous injection. The collected blood was centrifuged (13,000 rpm, 5 minutes) with a high speed refrigerated centrifuge (MR-150, Tomy Seiko Co, Ltd.) to recover the supernatant (plasma). Glucose level in blood was measured using Fuji Drychem 3500 (FUJI FILM) and glucagon level in blood was measured using a glucagon kit “Daiichi” (Daiichi Radioisotope Laboratories Ltd.), as in TEST EXAMPLE 1 or 2.

[4] = SW620 tumor-bearing BALB/cAnN-nu mice, 1 mM, 24 mol/day/mouse×14 days (24 nmol for Compound No. 305)
[5] = SW620 tumor-bearing mice, 0.1 mM, 1/10 dose of Metastin, 2.4 mol (nmol)/day/mouse×14 days
[6] = s.c. 2.0 nmol/animal (Groups C, E)
[7] = s.c. 6.7 nmol/animal (Groups B, D)

Row | SMILES | tumor growth inhibition (tumor size) compared to the vehicle group [1, 4] | effect of tumor growth inhibition relative to Metastin ([1]; SW620 tumor-bearing mice) [times] | tumor growth inhibition (tumor size) compared to the vehicle group [1, 5] | progesterone level compared with hCG administration [2] | dose to be administered for induction of ovulation equivalent to hCG [2] | number of oocytes in average per rat [2, 6] [oocytes] | number of oocytes in average per rat [2, 7] [oocytes] | blood estradiol level [2, 6] | blood progesterone level [2, 6] | blood estradiol level [2, 7] | blood progesterone level [2, 7] | blood glucose level [3] | blood glucagon level [3] | tumor growth inhibition (tumor size) compared with the Metastin group ([1]; SW620 tumor-bearing mice, same dose as Metastin, 24 mol/day/mouse×14 days) | rats ovulated ([2]; Group E, s.c. 2.0 mmol (so in the source) per animal)
1 | CNC(=N)NCCC[C@H](NC(=O)[C@H](CC(C)C)NC(=O)NNC(=O)[C@H](Cc1ccccc1)NC(=O)[C@H](CO)NC(=O)[C@H](CC(N)=O)NC(=O)[C@@H](Cc1ccncc1)NC(=O)[C@H](N)Cc1ccc(O)cc1)C(=O)N[C@@H](Cc1ccccc1)C(N)=O [Compound No. 305, D-Tyr-D-Pya(4)-Asn-Ser-Phe-AzaGly-Leu-Arg(Me)-Phe-NH2] (H-[dY][d4Pal]NSF[azaGly]L[Arg(Me)]F-NH2) | significant effect of tumor growth inhibition from Days 5 to 9 and on Day 11 | 10 | significant tumor growth inhibition activity from Days 5 to 11 | lower than in the hCG administration | at least 2.0 mmol/animal | 29.4 | 32.6 | no difference was found among Groups A, B, C and D | less than a half of the level in Group A | no difference was found among Groups A, B, C and D | less than a half of the level in Group A | increase in the blood glucose level | increase in the blood glucagon level |  | 
2 | CNC(=N)NCCC[C@H](NC(=O)[C@H](CC(C)C)NC(=O)NNC(=O)[C@H](Cc1ccccc1)NC(=O)[C@H](CO)NC(=O)[C@H](CC(N)=O)NC(=O)CCc1cccnc1)C(=O)N[C@@H](Cc1ccccc1)C(N)=O [Compound No. 322, 3-(3-Pyridyl)propionyl-Asn-Ser-Phe-AzaGly-Leu-Arg(Me)-Phe-NH2] ({Propanoyl(3-(3-pyridyl))}-NSF[azaGly]L[Arg(Me)]F-NH2) | significant tumor growth inhibition activity from Days 6 to 11 | 10 | significant tumor growth inhibition activity in a 1/10 dose (2.4 mol/day/mouse×14 days) of Metastin from Days 6 to 8 | lower than in the hCG administration | at least 6.7 mmol/animal | 11.6 | 29.6 | tendency to show a higher level in rats with no ovulation induction | very low level | no difference was found among Groups A, B, C and D | less than a half of the level in Group A | increase in the blood glucose level | increase in the blood glucagon level | on Day 11, showed a significant tumor growth inhibition activity even when compared with the Metastin group | 3 out of 5
